The values that follow come from US20240002375A1, “2-(INDAZOL-5-YL)-6-(PIPERIDIN-4-YL)-1,7-NAPHTHYRIDINE DERIVATIVES AND RELATED COMPOUNDS AS MODULATORS FOR SPLICING NUCLEIC ACIDS AND FOR THE TRE” (REMIX THERAPEUTICS INC., priority 2020, published 2024).

What all share (format): cell-based
One test relates to HTT mRNA. The test is described as follows: Splicing assay (RT-qPCR) of HTT mRNA alternative junction (AJ) and canonical junction (CJ). The settings on record: A673 or K562 cells, 24 hours; for IC50: decrease in CJ mRNA, read-out: HTT CJ IC50; for AC50: increase in AJ mRNA, read-out: HTT AJ AC50. As for the experimental part:
Compounds described herein were used to modulate RNA transcript abundance in cells. The expression of a target mRNA was measured by detecting the formation of an exon-exon junction in the canonical transcript (CJ). A compound mediated exon-inclusion event was detected by observing an increase in formation of a new junction with an alternative exon (AJ). Real-time qPCR assays were used to detect these splicing switches and interrogate the potency of various compounds towards different target genes. A high-throughput real time quantitative PCR (RT-qPCR) assay was developed to measure these two isoforms of the mRNA (CJ and AJ) for an exemplary gene, HTT, together with a control housekeeping gene, GAPDH or GUSB or PPIA, used for normalization. Briefly, the A673 or K562 cell line was treated with various compounds described herein (e.g., compounds of Formula (I) or (II)). After treatment, the levels of the HTT mRNA targets were determined from each sample of cell lysate by cDNA synthesis followed by qPCR.
Materials: • Cells-to-CT 1-step kit: ThermoFisher A25602, Cells-to-CT lysis reagent: ThermoFisher 4391851C, TagMan™ Fast Virus 1-Step Master Mix: ThermoFisher 4444436 • GAPDH: VIC-PL, ThermoFisher 4326317E (Assay: Hs99999905_ml)—used for K562/suspension cell lines • GUSB: VIC-PL, ThermoFisher 4326320E (Assay: Hs99999908 ml)—used for K562/suspension cell lines • PPIA: VIC-PL, ThermoFisher 4326316E (Assay: Hs99999904 ml)—used for A673/adherent cell lines
The A673 cell line was cultured in DMEM with 10% FBS. Cells were diluted with full growth media and plated in a 96-well plate (15,000 cells in 100 ul media per well). The plate was incubated at 37° C. with 5% CO2 for 24 hours to allow cells to adhere. An 11-point 3-fold serial dilution of the compounds was made in DMSO then diluted in media in an intermediate plate. Compounds were transferred from the intermediate plate to the cell plate with the top dose at a final concentration of 10 uM in the well. Final DMSO concentration was kept at or below 0.25%. The cell plate was returned to the incubator at 37° C. with 5% CO2 for an additional 24 hours.
The K562 cell line was cultured in IMDM with 10% FBS. For K562, cells were diluted with full growth media and plated in either a 96-well plate (50,000 cells in 50 uL media per well) or a 384-well plate (8,000-40,000 cells in 45 uL media per well). An 11-point 3-fold serial dilution of the compounds were made in DMSO then diluted in media in an intermediate plate. Compound was transferred from the intermediate plate to the cell plate with the top dose at a final concentration of 10 uM in the well. Final DMSO concentration was kept at or below 0.25%. Final volume was 100 uL for 96-well plate and 50 uL for 384-well plate. The cell plate was then placed in an incubator at 37° C. with 5% CO2 for 24 hours.
The cells were then gently washed with 50 uL-100 uL cold PBS before proceeding to addition of lysis buffer. 30 uL-50 uL of room temperature lysis buffer with DNAse I (and optionally RNAsin) was added to each well. Cells were shaken/mixed thoroughly at room temperature for 5-10 minutes for lysis to take place and then 3 uL-5 uL of room temperature stop solution was added and wells were shaken/mixed again. After 2-5 minutes, the cell lysate plate was transferred to ice for RT-qPCR reaction setup. The lysates could also be frozen at −80° C. for later use.
In some cases, a direct lysis buffer was used. An appropriate volume of 3X lysis buffer (10 mM Tris, 150 mM NaCl, 1.5%-2.5% Igepal and 0.1-1 U/uL RNAsin, pH 7.4) was directly added to either K562 or A673 cells in media and mixed by pipetting 3 times. The plates were then incubated at room temperature with shaking/rocking for 20-50 minutes to allow for lysis to take place. After this time, the cell lysate plate was transferred to ice to set up for the RT-qPCR reactions. The lysates could also be frozen at −80° C. for later use. […]

The next test relates to HTT CJ mRNA. Description: Gene panel canonical junction qPCR splicing assay, HTT. Particulars: Table 4, read-out: HTT IC50 (decrease in CJ mRNA levels). The method, then:
(§1) Compounds described herein were used to modulate RNA transcript abundance in cells. The expression of a target mRNA was measured by detecting the formation of an exon-exon junction in the canonical transcript (CJ). A compound mediated exon-inclusion event was detected by observing an increase in formation of a new junction with an alternative exon (AJ). Real-time qPCR assays were used to detect these splicing switches and interrogate the potency of various compounds towards different target genes. A high-throughput real time quantitative PCR (RT-qPCR) assay was developed to measure these two isoforms of the mRNA (CJ and AJ) for an exemplary gene, HTT, together with a control housekeeping gene, GAPDH or GUSB or PPIA, used for normalization. Briefly, the A673 or K562 cell line was treated with various compounds described herein (e.g., compounds of Formula (I) or (II)). After treatment, the levels of the HTT mRNA targets were determined from each sample of cell lysate by cDNA synthesis followed by qPCR. The data analysis was performed by first determining the ΔCt vs the housekeeper gene. This ΔCt was then normalized against the DMSO control (ΔΔCt) and converted to RQ (relative quantification) using the 2^(−ΔΔCt) equation. The RQ were then converted to a percentage response by arbitrarily setting an assay window of 3.5 ΔCt for HTT-CJ and an assay window of 9 ΔCt for HTT-AJ. […] The percentage response was then fitted to the 4 parametric logistic equation to evaluate the concentration dependence of compound treatment. The increase in AJ mRNA is reported as AC50 (compound concentration having 50% response in AJ increase) while the decrease in CJ mRNA levels is reported as IC50 (compound concentration having 50% response in CJ decrease). Additional studies were carried out for a larger panel of genes using the protocol provided above. The junction between flanking upstream and downstream exons was used to design canonical junction qPCR assays. At least one of the forward primer, reverse primer or the CY5-labeled 5′ nuclease probe (with 3′ quencher such as ZEN/Iowa Black FQ) was designed to overlap with the exon junction to capture the CJ mRNA transcript. BLAST was used to confirm the specificity of the probeset and parameters such as melting temperature, GC content, amplicon size, and primer dimer formation are considered during their design. Data for the decrease in CJ mRNA levels for three exemplary genes (HTT, SMN2, and Target C) analyzed in this panel are reported as IC50 (compound concentration having 50% response in CJ decrease).
On the technique in general: In qPCR the cycle at which signal appears reflects the starting amount.

Another test relates to SMN2 CJ mRNA. Description: Gene panel canonical junction qPCR splicing assay, SMN2. Particulars: Table 4, read-out: SMN2 IC50 (decrease in CJ mRNA levels). The method, then: as §1
A further test has as its system Target C CJ mRNA. The test is described as follows: Gene panel canonical junction qPCR splicing assay, Target C. The settings on record: Table 4, read-out: Target C IC50 (decrease in CJ mRNA levels). The method, then:
as §1

As usually defined, the IC50 is the concentration that gives 50% inhibition. Broadly, the AC50 is the concentration at which the activity in the assay is half-maximal.

As to `Cn1cc2cc(-c3ccc4nc(N5CC[C@H](NC6(C)CC6)C5)ccc4n3)c(O)cc2n1` (single isomer, unassigned) [Compound 221, 2-methyl-5-{6-[(35)-3-[(1-methylcyclopropyl)amino]pyrrolidin-1-yl]-1,5-naphthyridin-2-yl}indazol-6-ol], the IC50 in the test on HTT mRNA, in the test with HTT CJ mRNA, with SMN2 CJ mRNA and in the test on Target C CJ mRNA was below 100 nM in each case. Besides, in the test with HTT mRNA, the half-maximal activity concentration (AC50) is below 100 nM.
Turning to `Cn1cc2cc(-c3ccc4nc(N5CC[C@H](NC6(C)CC6)C5)ccc4n3)c(O)c(F)c2n1` (single isomer, unassigned) [Compound 222, 7-fluoro-2-methyl-5-{6-[(3 S)-3-[(1-methylcyclopropyl)amino]pyrrolidin-1-yl]-1,5-naphthyridin-2-yl}indazol-6-ol], the IC50 with HTT mRNA, in the test on HTT CJ mRNA, in the test with SMN2 CJ mRNA and in the test on Target C CJ mRNA was below 100 nM in each case. In addition, the half-maximal activity concentration (AC50) with HTT mRNA is below 100 nM.
In the case of `Cn1cc2cc(-c3ccc4nc(N5CC[C@@H](NC6(C)CC6)C5)ccc4n3)c(O)c(F)c2n1` (single isomer, unassigned) [Compound 223], the concentration for half-maximal inhibition (IC50) in the test on HTT mRNA, with HTT CJ mRNA, in the test on SMN2 CJ mRNA and in the test on Target C CJ mRNA was below 100 nM in each case. The concentration at half-maximal activity (AC50) in the test on HTT mRNA was below 100 nM.
Regarding `Cc1c(O)c(-c2ccc3nc(N4CC[C@@H](NC5(C)CC5)C4)ccc3n2)cc2cn(C)nc12` (single isomer, unassigned) [Compound 225], the IC50 with HTT mRNA, in the test on HTT CJ mRNA, in the test with SMN2 CJ mRNA and in the test with Target C CJ mRNA was below 100 nM in each case. For the same compound, in the test with HTT mRNA, the concentration at half-maximal activity (AC50) is below 100 nM.
On to `Cc1c(O)c(-c2ccc3nc(N4CC[C@H](NC5(C)CC5)C4)ccc3n2)cc2cn(C)nc12` (single isomer, unassigned) [Compound 226, 2,7-dimethyl-5-{6-[(35)-3-[(1-methylcyclopropyl)amino]pyrrolidin-1-yl]-1,5-naphthyridin-2-yl}indazol-6-ol], for which the IC50 with HTT mRNA, in the test on HTT CJ mRNA, in the test on SMN2 CJ mRNA and with Target C CJ mRNA was below 100 nM throughout. The AC50 in the test on HTT mRNA is below 100 nM.
For the compound `Cc1nc2cc(O)c(-c3ccc4nc(N5CCC(NC6CCC6)C5)ccc4n3)cc2o1` (single isomer, unassigned) [Compound 229, 6-{6-[3-(cyclobutylamino)pyrrolidin-1-yl]-1,5-naphthyridin-2-yl}-2-methyl-1,3-benzoxazol-5-ol], the 50% inhibitory concentration (IC50) with HTT mRNA was below 100 nM; in the test with HTT CJ mRNA, below 100 nM; in the test with SMN2 CJ mRNA, below 100 nM; with Target C CJ mRNA, 100 to 1000 nM. In addition, the AC50 in the test with HTT mRNA was below 100 nM.
For `Cc1nc2cc(O)c(-c3ccc4nc(N5CCC(NC6CCC6)C5)ccc4n3)cc2o1` (single isomer, unassigned) [Compound 230, 6-{6-[3-(cyclobutylamino)pyrrolidin-1-yl]-1,5-naphthyridin-2-yl}-2-methyl-1,3-benzoxazol-5-ol], the 50% inhibitory concentration (IC50) in the test with HTT mRNA is below 100 nM; in the test on HTT CJ mRNA, below 100 nM; in the test on SMN2 CJ mRNA, below 100 nM; with Target C CJ mRNA it was 100 to 1000 nM. In the test on HTT mRNA, the AC50 was below 100 nM.
For the compound `Cc1nc2cc(O)c(-c3ccc4nc(N5CC[C@@H](NC(C)C)C5)ccc4n3)cc2o1` (single isomer, unassigned) [Compound 232, 6-{6-[3-(isopropylamino)pyrrolidin-1-yl]-1,5-naphthyridin-2-yl}-2-methyl-1,3-benzoxazol-5-ol], the half-maximal inhibitory concentration (IC50) with HTT mRNA, with HTT CJ mRNA, in the test with SMN2 CJ mRNA and in the test on Target C CJ mRNA was below 100 nM in each case. The concentration at half-maximal activity (AC50) with HTT mRNA was below 100 nM.
`Cc1nc2cc(O)c(-c3ccc4nc(N5CC[C@H](NC(C)C)C5)ccc4n3)cc2o1` (single isomer, unassigned) [Compound 233, 6-{6-[3-(isopropylamino)pyrrolidin-1-yl]-1,5-naphthyridin-2-yl}-2-methyl-1,3-benzoxazol-5-ol]: the IC50 in the test with HTT mRNA, in the test on HTT CJ mRNA, with SMN2 CJ mRNA and in the test with Target C CJ mRNA was below 100 nM throughout. For the same compound, the AC50 with HTT mRNA was below 100 nM.
For the compound `Cc1nc2c(C)c(O)c(-c3ccc4nc(N5CCC(NC6CCC6)C5)ccc4n3)cc2o1` (single isomer, unassigned) [Compound 237, 6-{6-[3-(cyclobutylamino)pyrrolidin-1-yl]-1,5-naphthyridin-2-yl}-2,4-dimethyl-1,3-benzoxazol-5-ol], the IC50 in the test with HTT mRNA, in the test on HTT CJ mRNA, in the test with SMN2 CJ mRNA and with Target C CJ mRNA was below 100 nM each time. In addition, in the test on HTT mRNA, the AC50 was below 100 nM.
`Cc1nc2c(F)c(O)c(-c3ccc4nc(N5CC[C@@H](NC6CC6)C5)ccc4n3)cc2o1` (single isomer, unassigned) [Compound 253, 6-{6-[3-(cyclopropylamino)pyrrolidin-1-yl]-1,5-naphthyridin-2-yl}-4-fluoro-2-methyl-1,3-benzoxazol-5-ol]: the IC50 in the test on HTT mRNA, with HTT CJ mRNA, in the test on SMN2 CJ mRNA and with Target C CJ mRNA was below 100 nM throughout. Further, in the test with HTT mRNA, the concentration at half-maximal activity (AC50) was below 100 nM.
